The source made the active and inactive calls. No cut-off for these calls is given here.
Legend:
Toll-like receptor 7 = biological target: T1, Toll-like receptor 7 (Homo sapiens, UniProt Q9NYK1); test: Agonist activity at human TLR7 in HEK293 cells cotransfected with SEAP reporter gene assessed as activity of SEAP incubated for 24 hrs by quanti-blue staining based SEAP reporter gene assay; format: cell-based
T1 sequence (Q9NYK1 whole entry): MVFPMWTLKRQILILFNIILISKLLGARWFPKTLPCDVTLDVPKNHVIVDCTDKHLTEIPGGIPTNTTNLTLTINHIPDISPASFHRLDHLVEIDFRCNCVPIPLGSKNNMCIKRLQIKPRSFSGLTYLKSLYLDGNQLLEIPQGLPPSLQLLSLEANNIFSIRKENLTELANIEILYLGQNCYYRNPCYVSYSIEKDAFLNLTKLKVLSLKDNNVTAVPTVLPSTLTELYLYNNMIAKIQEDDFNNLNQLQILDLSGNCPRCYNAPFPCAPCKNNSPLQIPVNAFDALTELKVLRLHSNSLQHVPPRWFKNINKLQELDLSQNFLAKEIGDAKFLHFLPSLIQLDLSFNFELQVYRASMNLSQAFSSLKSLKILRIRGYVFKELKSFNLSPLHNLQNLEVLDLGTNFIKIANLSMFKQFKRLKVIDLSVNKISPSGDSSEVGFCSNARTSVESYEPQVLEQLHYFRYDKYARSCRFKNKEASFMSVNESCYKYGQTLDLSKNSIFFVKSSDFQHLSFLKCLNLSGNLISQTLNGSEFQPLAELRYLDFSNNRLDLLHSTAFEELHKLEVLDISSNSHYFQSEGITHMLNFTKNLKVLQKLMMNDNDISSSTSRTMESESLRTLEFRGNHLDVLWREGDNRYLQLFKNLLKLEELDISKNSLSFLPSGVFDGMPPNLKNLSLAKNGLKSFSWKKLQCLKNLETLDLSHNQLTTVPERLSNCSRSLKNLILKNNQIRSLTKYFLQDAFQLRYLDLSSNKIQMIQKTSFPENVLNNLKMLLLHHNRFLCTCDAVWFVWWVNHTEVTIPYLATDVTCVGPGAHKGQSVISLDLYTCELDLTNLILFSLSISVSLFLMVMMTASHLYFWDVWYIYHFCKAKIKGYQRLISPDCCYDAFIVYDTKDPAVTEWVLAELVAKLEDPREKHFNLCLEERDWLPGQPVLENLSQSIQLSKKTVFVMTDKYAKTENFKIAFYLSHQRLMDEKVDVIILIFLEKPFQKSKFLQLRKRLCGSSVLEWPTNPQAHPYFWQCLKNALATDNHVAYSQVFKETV

[1] = Cytotoxicity against human HEK293 cells transfected with human TLR7/8 assessed as reduction in cell viability incubated for 24 hrs by MTS assay; format: cell-based; conditions: read-out: MNCC
[2] = biological target: T2, Toll-like receptor 7 (Homo sapiens) (UniProt Q9NYK1); test: Antagonist activity at human TLR7 in HEK293 cells cotransfected with SEAP reporter gene assessed as activity of SEAP preincubated for 2 hrs followed by imiquimod addition further incubated for 24 hrs by quanti-blue staining based SEAP reporter gene assay; format: cell-based
T2 sequence (whole entry): T1 sequence (Q9NYK1 whole entry)

[3] = biological target: T3, Toll-like receptor 8 (Homo sapiens) (UniProt Q9NR97); test: Agonist activity at human TLR8 in HEK293 cells cotransfected with SEAP reporter gene assessed as activity of SEAP incubated for 24 hrs by quanti-blue staining based SEAP reporter gene assay; format: cell-based
T3 sequence (whole entry): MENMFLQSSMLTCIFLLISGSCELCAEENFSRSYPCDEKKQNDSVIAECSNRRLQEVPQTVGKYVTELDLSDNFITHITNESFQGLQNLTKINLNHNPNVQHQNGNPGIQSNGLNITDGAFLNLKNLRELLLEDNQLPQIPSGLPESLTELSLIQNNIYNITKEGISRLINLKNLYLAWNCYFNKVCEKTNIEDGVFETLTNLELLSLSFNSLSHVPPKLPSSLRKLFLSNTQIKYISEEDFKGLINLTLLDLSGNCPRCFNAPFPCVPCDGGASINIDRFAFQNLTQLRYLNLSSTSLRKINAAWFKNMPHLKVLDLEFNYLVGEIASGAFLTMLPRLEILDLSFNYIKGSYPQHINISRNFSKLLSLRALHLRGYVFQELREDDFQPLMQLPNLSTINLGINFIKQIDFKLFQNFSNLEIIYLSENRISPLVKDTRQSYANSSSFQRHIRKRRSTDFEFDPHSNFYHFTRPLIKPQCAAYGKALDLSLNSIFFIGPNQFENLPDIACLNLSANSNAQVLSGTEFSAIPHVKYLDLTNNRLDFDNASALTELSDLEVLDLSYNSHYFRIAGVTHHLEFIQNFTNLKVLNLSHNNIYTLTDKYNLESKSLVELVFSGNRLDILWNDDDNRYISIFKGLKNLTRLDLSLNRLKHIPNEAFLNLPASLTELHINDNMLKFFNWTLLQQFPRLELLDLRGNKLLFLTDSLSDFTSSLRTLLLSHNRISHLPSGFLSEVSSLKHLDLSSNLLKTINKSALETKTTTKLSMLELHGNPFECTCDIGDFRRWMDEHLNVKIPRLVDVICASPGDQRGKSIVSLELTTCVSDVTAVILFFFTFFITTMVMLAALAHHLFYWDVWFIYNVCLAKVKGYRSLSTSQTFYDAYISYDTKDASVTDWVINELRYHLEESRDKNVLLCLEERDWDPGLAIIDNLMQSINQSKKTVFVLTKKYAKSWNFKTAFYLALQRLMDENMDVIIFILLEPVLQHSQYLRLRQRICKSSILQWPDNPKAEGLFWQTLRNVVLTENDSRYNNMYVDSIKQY

PBMC [4] = test: Induction of IL-6 production in human PBMC at 10 ug/ml incubated for 24 hrs by flow cytometry analysis; format: functional, cell-based
PBMC [5] = test: Induction of IL-8 production in human PBMC at 10 ug/ml incubated for 24 hrs by flow cytometry analysis; format: functional, cell-based
PBMC [6] = test: Induction of TNFalpha production in human PBMC at 10 ug/ml incubated for 24 hrs by flow cytometry analysis; format: functional, cell-based
PBMC [7] = test: Induction of IL-12p70 production in human PBMC at 10 ug/ml incubated for 24 hrs by flow cytometry analysis; format: functional, cell-based

Row | Structure (SMILES) | EC50 (Toll-like receptor 7; hek293) | EC50 (Toll-like receptor 7; read-out: EC50) [µM] | Activity [2] | Activity [3] | MNTC at 24 h [1] [µM] | Activity (PBMC [4]) | Activity (PBMC [5]) | Activity (PBMC [6]) | Activity (PBMC [7])
1 | CC(C)n1cnc2c(=O)oc3ccccc3c21 | Not Active |  |  |  | ≥ 250 |  |  |  | 
2 | FC(F)(F)c1nc(NC2CCN(C3CC3)CC2)c2ccccc2n1 |  | 66.6 | inactive | inactive | 125 |  |  |  | 
3 | FC(F)(F)c1nc(NCC2CC2)c2ccccc2n1 |  | 15 | inactive | inactive | 31.3 |  |  |  | 
4 | CC(C)Cn1cnc2c(=O)oc3ccc(O)cc3c21 |  | 1.8 | inactive | inactive | 62.5 | inactive | inactive | inactive | inactive
5 | COc1ccc2c(c1)oc(=O)c1ncn(CC(C)C)c12 |  | 279 | inactive | inactive | ≥ 250 |  |  |  | 
6 | CC(C)CNc1nc(C(F)(F)F)nc2ccccc12 |  | 4.4 | inactive | inactive | 7.8 to 250 |  |  |  | 
7 | FC(F)(F)c1nc(N2CCCC2)c2ccccc2n1 |  | 15.4 | inactive | inactive | 31.3 |  |  |  | 
8 | FC(F)(F)c1nc(NC2CC2)c2ccccc2n1 |  | 16.8 | inactive | inactive | 125 | Active | Active | inactive | inactive
9 | CCCCn1cnc2c(=O)oc3ccccc3c21 |  | 107 | inactive | inactive | ≥ 250 |  |  |  | 
10 | CCCn1cnc2c(=O)oc3ccccc3c21 | Not Active |  |  |  | ≥ 250 |  |  |  | 
11 | C=CCn1cnc2c(=O)oc3ccccc3c21 | Not Active |  |  |  | ≥ 250 |  |  |  | 
12 | CC(C)Cn1cnc2c(N)nc3ccccc3c21 [IMIQUIMOD] |  | 6.2 to 8.2 |  |  |  |  | Active | inactive | inactive
13 | CCn1cnc2c(=O)oc3ccc(F)cc3c21 | Not Active |  |  |  | ≥ 250 |  |  |  | 
14 | FC(F)(F)c1nc(NCCc2cnc[nH]2)c2ccccc2n1 | Not Active |  |  |  | 31.3 |  |  |  | 
15 | CN1CCN(c2nc(C(F)(F)F)nc3ccccc23)CC1 | Not Active |  |  |  | 7.8 to 250 |  |  |  | 
16 | CC(C)Cn1cnc2c(=O)oc3ccc([N+](=O)[O-])cc3c21 | Not Active |  |  |  | 62.5 |  |  |  | 
17 | Oc1nc(C(F)(F)F)nc2ccccc12 | Not Active |  |  |  | 62.5 |  |  |  | 

Further lines, with some results ahead:

Row | EC50 (Toll-like receptor 7; hek293) | EC50 (Toll-like receptor 7; read-out: EC50) [µM] | Activity [2] | Activity [3] | Structure (SMILES) | MNTC at 24 h [1] [µM] | Activity (PBMC [4]) | Activity (PBMC [5]) | Activity (PBMC [6]) | Activity (PBMC [7])
18 |  | 57.4 | inactive | inactive | CC(C)Nc1nc(C(F)(F)F)nc2ccccc12 | 62.5 |  |  |  | 
19 | Not Active |  |  |  | CC1CCCN(c2cc(C(F)(F)F)nc3ccccc23)C1 (stereo not given) | 31.3 |  |  |  | 
20 | Not Active |  |  |  | COc1ccc2oc(=O)c3ncn(CC(C)C)c3c2c1 | 62.5 |  |  |  | 
21 |  | 29.9 | inactive | inactive | CCN(CC)c1ccc2c(c1)oc(=O)c1ncn(CC(C)C)c12 | 62.5 |  |  |  | 
22 |  |  | Active | inactive | CC(C)Cn1cnc2c(=O)oc3ccccc3c21 |  |  |  |  | 
23 |  | 10.9 | inactive | inactive | FC(F)(F)c1nc(NC2CCCC2)c2ccccc2n1 | 62.5 |  |  |  | 
24 | Not Active |  |  |  | FC(F)(F)c1nc(NCCN2CCCCC2)c2ccccc2n1 | 62.5 |  |  |  | 
25 |  | 44 | inactive | inactive | CCCNc1nc(C(F)(F)F)nc2ccccc12 | 62.5 |  |  |  | 
26 |  | 6.3 | inactive | inactive | CC(C)CNc1cc(C(F)(F)F)nc2ccccc12 | 62.5 | Active | Active | inactive | inactive
27 |  | 535 | inactive | inactive | Cc1ccc2oc(=O)c3ncn(CC(C)C)c3c2c1 | ≥ 250 |  |  |  | 
28 |  |  | inactive |  | OCCNc1nc(C(F)(F)F)nc2ccccc12 | 125 |  |  |  | 
29 | Not Active |  |  |  | Nc1nc(C(F)(F)F)nc2ccccc12 | 62.5 |  |  |  | 
30 | Not Active |  |  |  | FC(F)(F)c1nc(N2CCOCC2)c2ccccc2n1 | 125 |  |  |  | 
31 |  | 4 | inactive | inactive | CC1CCCN(c2nc(C(F)(F)F)nc3ccccc23)C1 (stereo not given) | 62.5 |  |  |  | 
32 |  | 114 | inactive | inactive | CC(C)Cn1cnc2c(=O)oc3cc(O)ccc3c21 | ≥ 250 |  |  |  | 
33 |  | 8.3 | inactive | inactive | FC(F)(F)c1nc(NC2CCCCC2)c2ccccc2n1 | 31.3 | Active | Active | inactive | inactive
34 | Not Active |  |  |  | Nc1ccc(CNc2nc(C(F)(F)F)nc3ccccc23)cc1 | 15.6 |  |  |  | 
35 | Not Active |  |  |  | CC(C)Cn1cnc2c(=O)oc3ccc(F)cc3c21 | ≥ 250 |  |  |  | 
36 | Not Active |  |  |  | COCCCn1cnc2c(=O)oc3ccccc3c21 | ≥ 250 |  |  |  | 
37 | Not Active |  |  |  | FC(F)(F)c1nc(Cl)c2ccccc2n1 | 31.3 |  |  |  | 
38 | Not Active |  |  |  | COCCn1cnc2c(=O)oc3ccccc3c21 | ≥ 250 |  |  |  | 
39 | Not Active |  |  |  | O=C(O)CNc1nc(C(F)(F)F)nc2ccccc12 | 31.3 |  |  |  | 

Source: ChEMBL document CHEMBL4351003, “Selective Toll-like receptor 7 agonists with novel chromeno[3,4-d]imidazol-4(1H)-one and 2-(trifluoromethyl)quinoline/ quinazoline-4-amine scaffolds” (Eur J Med Chem, 2019)
